Holding throughout (format): cell-based
What all share (details): component A (XP or YS) alone

For test [1], the system named is Clostridium perfringens ATCC13124 (产气荚膜梭状芽孢杆菌ATCC13124).
Test [2] has as its system Shigella flexneri 2aEW-10 (福氏志贺氏菌2aEW-10). Put plainly: Antibacterial action (MIC, FICI) against Shigella flexneri 2aEW-10 (Table 15).
In test [3] the test system is Escherichia coli ATCC25922 (大肠杆菌ATCC25922). Put plainly: Antibacterial action (MIC, FICI) against Escherichia coli ATCC25922 (Table 7).
For test [4], the system named is Propionibacterium acnes ATCC11828 (痤疮丙酸杆菌ATCC11828). Put plainly: Antibacterial action (MIC, FICI) against Propionibacterium acnes ATCC11828 (Table 21).
Test [5] relates to Stenotrophomonas maltophilia NCTC 13637 (嗜麦芽窄食单胞菌NCTC 13637). Nature of the test: Antibacterial action (MIC, FICI) against Stenotrophomonas maltophilia NCTC 13637 (Table 18).
For test [6], the system named is Serratia marcescens IFO 3736 (黏质沙雷氏菌IFO 3736). Nature of the test: Antibacterial action (MIC, FICI) against Serratia marcescens IFO 3736 (Table 10).
Test [7] has as its system Streptococcus intermedius ATCC27335 (中间链球菌ATCC27335). Put plainly: Antibacterial action (MIC, FICI) against Streptococcus intermedius ATCC27335 (Table 20).
The subject of test [8] is Providencia stuartii 57 (斯氏普罗威登斯菌57). Put plainly: Antibacterial action (MIC, FICI) against Providencia stuartii 57 (Table 12).
The test system of test [9] is Micrococcus lysodeikticus 2665 (溶壁微球菌2665). Nature of the test: Antibacterial action (MIC, FICI) against Micrococcus lysodeikticus 2665 (Table 4).
The subject of test [10] is Klebsiella pneumoniae NCTC 9632 (肺炎克雷伯菌NCTC 9632). Put plainly: Antibacterial action (MIC, FICI) against Klebsiella pneumoniae NCTC 9632 (Table 9).

Each structure is given as a SMILES string.

As for `CCOC(=O)C1=C[C@H](OC(CC)CC)[C@@H](N)[C@H](N)C1` [化合物17S, 乙基(3S,4S,5R)-4,5-二氨基-3-(戊-3-基氧基)环己-1-烯-1-羧酸酯], the MIC_A in test [1] is 684 ng/mL; in [2] it was 929 ng/mL; in test [3] it was 683 ng/mL; in test [4], 969 ng/mL; in test [5] it was 447 ng/mL.
Regarding `CCOC(=O)C1=C[C@@H](OC(C)CC)[C@H](NC(C)=O)[C@@H](N)C1` (stereo partly drawn) [化合物19S, 乙基(3R,4R,5S)-4-乙酰氨基-5-氨基-3-(sec-丁氧基)环己-1-烯-1-羧酸酯], the MIC_A in test [6] is on record as 1016 ng/mL; in test [7], 310 ng/mL; in [8], 823 ng/mL.
For the compound `CCOC(=O)C1=C[C@@H](OC(CC)CC)[C@@H](NC(C)=O)[C@@H](N)C1` [化合物8S, 乙基(3R,4S,5S)-4-乙酰氨基-5-氨基-3-(戊-3-基氧基)环己-1-烯-1-羧酸酯], the MIC_A in test [1] amounted to 483 ng/mL; in [5], 800 ng/mL.
`CCC(CC)O[C@@H]1C=C(C(=O)O)C[C@H](NC(C)=O)[C@H]1NC(CC(=O)O)C(=O)O` (mixture of isomers) [化合物2P, ((1R,2R,6S)-6-乙酰氨基-4-羧基-2-(戊-3-基氧基)环己-3-烯-1-基)-DL-天门冬氨酸]: the MIC_A in test [7] is 10 ng/mL; in test [2] it was 22 ng/mL; in test [3], 45 ng/mL; in test [5], 13 ng/mL.
Turning to `CCOC(=O)C1=C[C@@H](OC(CC)CC)[C@H](NC(C)=O)[C@@H](N)C1` [化合物1S, 乙基(3R,4R,5S)-4-乙酰氨基-5-氨基-3-(戊-3-基氧基)环己-1-烯-1-羧酸酯], the MIC_A in test [1] is recorded as 504 ng/mL; in test [9] it was 300 ng/mL; in test [4], 633 ng/mL; in test [8], 1178 ng/mL.
Consider `CCOC(=O)C1=C[C@@H](O)[C@H](NC(C)=O)[C@@H](N)C1` [化合物13S, 乙基(3R,4R,5S)-4-乙酰氨基-5-氨基-3-羟基环己-1-烯-1-羧酸酯], for which the MIC_A in test [7] is 655 ng/mL; in test [10] it was 1081 ng/mL; in [9], 914 ng/mL; in [8], 1021 ng/mL.
For the compound `CCC(CC)O[C@@H]1C=C(C(=O)O)C[C@H](N)[C@H]1N` [化合物11S, (3R,4R,5S)-4,5-二氨基-3-(戊-3-基氧基)环己-1-烯-1-羧酸], the MIC_A is listed as 482 ng/mL in test [1]; 659 ng/mL in [3]; 650 ng/mL in test [10]; 774 ng/mL in [5]; 1106 ng/mL in [8].
For the compound `CCC(CC)O[C@@H]1C=C(C(=O)O)C[C@H](NC(C)=O)[C@H]1N` [化合物2S, (3R,4R,5S)-5-乙酰氨基-4-氨基-3-(戊-3-基氧基)环己-1-烯-1-羧酸], the MIC_A in test [7] is given as 493 ng/mL; in test [2], 345 ng/mL; in [3] it was 720 ng/mL; in test [5], 879 ng/mL.
Consider `CCOC(=O)C1=C[C@@H](OC(CC)CC)[C@H](N)[C@@H](N)C1` [化合物12S, 乙基(3R,4R,5S)-4,5-二氨基-3-(戊-3-基氧基)环己-1-烯-1-羧酸酯], for which the MIC_A in [6] was determined as 691 ng/mL; in [7], 406 ng/mL; in [9] it was 1027 ng/mL.
In the case of `CCOC(=O)C1=C[C@@H](OC(CC)CC)[C@H](NC(C)=O)[C@@H](NC(CC(=O)O)C(=O)O)C1` (mixture of isomers) [化合物1P, ((1S,5R,6R)-6-乙酰氨基-3-(乙氧基羰基)-5-(戊-3-基氧基)环己-3-烯-1-基)-DL-天门冬氨酸], the MIC_A in test [1] was found to be 12 ng/mL; in [9], 4 ng/mL; in test [4], 18 ng/mL; in [8] it was 13 ng/mL.
Regarding `CCOC(=O)C1=C[C@H](OC(CC)CC)[C@@H](NC(C)=O)[C@H](N)C1` [化合物7S, 乙基(3S,4S,5R)-4-乙酰氨基-5-氨基-3-(戊-3-基氧基)环己-1-烯-1-羧酸酯], the MIC_A in test [2] amounted to 1145 ng/mL; in test [3] it was 484 ng/mL; in test [10] it was 376 ng/mL; in test [4] it was 461 ng/mL.
As to `CCOC(=O)C1=C[C@@H](OC(CC)CC)[C@H](NC(C)=O)[C@@H](NC(CC(=O)O)C(=O)O)C1` (mixture of isomers) [化合物4P, ((1S,5R,6R)-6-乙酰氨基-3-(乙氧基羰基)-5-(戊-3-基氧基)环己-3-烯-1-基)-DL-天门冬氨酸], the MIC_A in test [1] is 36 ng/mL; in test [3], 17 ng/mL; in test [8], 34 ng/mL.
Turning to `CCC(CC)O[C@H]1C=C(C(=O)O)C[C@@H](N)[C@@H]1N` [化合物16S, (3S,4S,5R)-4,5-二氨基-3-(戊-3-基氧基)环己-1-烯-1-羧酸], in test [10], the MIC_A is recorded as 1179 ng/mL.
Regarding `CCOC(=O)C1=C[C@@H](OC(C)C)[C@H](NC(C)=O)[C@@H](N)C1` [化合物20S, 乙基(3R,4R,5S)-4-乙酰氨基-5-氨基-3-异丙氧基环己-1-烯-1-羧酸酯], the MIC_A in [3] came to 704 ng/mL; in test [4], 771 ng/mL; in test [5] it was 1079 ng/mL.
For `CCOC(=O)C1=C[C@@H](OC(CC)CC)[C@@H](NC(C)=O)[C@@H](NC(CC(=O)O)C(=O)O)C1` (mixture of isomers) [化合物8P, ((1S,5R,6S)-6-乙酰氨基-3-(乙氧基羰基)-5-(戊-3-基氧基)环己-3-烯-1-基)-DL-天门冬氨酸], the figures for the MIC_A in test [1] and in [5] were 28 ng/mL and 41 ng/mL, respectively.
Regarding `CCOC(=O)C1=C[C@H](OC(CC)CC)[C@@H](NC(C)=O)[C@H](NC(CC(=O)O)C(=O)O)C1` (mixture of isomers) [化合物7P, ((1R,5S,6S)-6-乙酰氨基-3-(乙氧基羰基)-5-(戊-3-基氧基)环己-3-烯-1-基)-DL-天门冬氨酸], the MIC_A is on record as 60 ng/mL in test [2], 27 ng/mL in [3], 25 ng/mL in test [10] and 10 ng/mL in [4].
In the case of `CCOC(=O)C1=C[C@@H](OC(CC)CC)[C@H](NC(C)=O)[C@@H](N)C1` [化合物4S, 乙基(3R,4R,5S)-4-乙酰氨基-5-氨基-3-(戊-3-基氧基)环己-1-烯-1-羧酸酯], the MIC_A in test [1] was found to be 762 ng/mL; in test [3], 456 ng/mL; in test [8], 581 ng/mL.
Take `CCC(CC)O[C@@H]1C=C(C(=O)O)C[C@H](NC(CC(=O)O)C(=O)O)[C@H]1N` (mixture of isomers) [化合物11P, ((1S,5R,6R)-6-氨基-3-羧基-5-(戊-3-基氧基)环己-3-烯-1-基)-DL-天门冬氨酸]: the MIC_A turned out to be 22 ng/mL in test [1]; 7 ng/mL in test [3]; 22 ng/mL in test [10]; 50 ng/mL in test [5]; 17 ng/mL in test [8].
As for `CCOC(=O)C1=C[C@@H](OC(CC)CC)[C@H](N)[C@@H](NC(CC(=O)O)C(=O)O)C1` (mixture of isomers) [化合物12P, ((1S,5R,6R)-6-氨基-3-(乙氧基羰基)-5-(戊-3-基氧基)环己-3-烯-1-基)-DL-天门冬氨酸], the MIC_A was 47 ng/mL in test [6], 25 ng/mL in [7] and 30 ng/mL in test [9].
`CCC(CC)O[C@H]1C=C(C(=O)O)C[C@@H](NC(CC(=O)O)C(=O)O)[C@@H]1N` (mixture of isomers) [化合物16P, ((1R,5S,6S)-6-氨基-3-羧基-5-(戊-3-基氧基)环己-3-烯-1-基)-DL-天门冬氨酸]: the MIC_A in [10] worked out at 15 ng/mL.
Turning to `CCOC(=O)C1=C[C@@H](OC(C)C)[C@H](NC(C)=O)[C@@H](NC(CC(=O)O)C(=O)O)C1` (mixture of isomers) [化合物20P, ((1S,5R,6R)-6-乙酰氨基-3-(乙氧基羰基)-5-异丙氧基环己-3-烯-1-基)-DL-天门冬氨酸], the figures for the MIC_A in test [3], in test [4] and in [5] were 19 ng/mL, 18 ng/mL and 36 ng/mL, respectively.
For the compound `CCOC(=O)C1=C[C@@H](O)[C@H](NC(C)=O)[C@@H](NC(CC(=O)O)C(=O)O)C1` (mixture of isomers) [化合物13P, ((1S,5R,6R)-6-乙酰氨基-3-(乙氧基羰基)-5-羟基环己-3-烯-1-基)-DL-天门冬氨酸], the MIC_A in test [7] amounted to 22 ng/mL; in [10] it was 55 ng/mL; in test [9] it was 27 ng/mL; in test [8], 54 ng/mL.
For the compound `CCOC(=O)C1=C[C@@H](O)[C@H](N)[C@@H](NC(CC(=O)O)C(=O)O)C1` (mixture of isomers) [化合物14P, ((1S,5R,6R)-6-氨基-3-(乙氧基羰基)-5-羟基环己-3-烯-1-基)-DL-天门冬氨酸], the values for the MIC_A in test [6] and in test [4] were 46 ng/mL and 18 ng/mL, respectively.
Turning to `CCOC(=O)C1=C[C@@H](O)[C@H](N)[C@@H](N)C1` [化合物14S, 乙基(3R,4R,5S)-4,5-二氨基-3-羟基环己-1-烯-1-羧酸酯], the MIC_A in test [6] was 1102 ng/mL; in [4], 701 ng/mL.
Consider `CCOC(=O)C1=C[C@H](OC(CC)CC)[C@H](NC(C)=O)[C@@H](NC(CC(=O)O)C(=O)O)C1` (mixture of isomers) [化合物6P, ((1S,5S,6R)-6-乙酰氨基-3-(乙氧基羰基)-5-(戊-3-基氧基)环己-3-烯-1-基)-DL-天门冬氨酸], for which the MIC_A in test [6] turned out to be 7 ng/mL; in test [7], 28 ng/mL; in test [9], 26 ng/mL; in test [5] it was 17 ng/mL.
The corresponding values for `CCOC(=O)C1=C[C@H](OC(CC)CC)[C@H](NC(C)=O)[C@@H](N)C1` [化合物6S, 乙基(3S,4R,5S)-4-乙酰氨基-5-氨基-3-(戊-3-基氧基)环己-1-烯-1-羧酸酯] are 445 ng/mL, 521 ng/mL, 556 ng/mL and 473 ng/mL.
Take `CCOC(=O)C1=C[C@@H](OC(C)CC)[C@H](NC(C)=O)[C@@H](NC(CC(=O)O)C(=O)O)C1` (mixture of isomers) [化合物19P, ((1S,5R,6R)-6-乙酰氨基-5-(sec-丁氧基)-3-(乙氧基羰基)环己-3-烯-1-基)-DL-天门冬氨酸]: the results for the MIC_A in test [6], in test [7] and in test [8] were 13 ng/mL, 11 ng/mL and 17 ng/mL, respectively.

These data come from patent publication CN111517978A, “环己烯基-dl-天门冬氨酸衍生物及其制备方法、组合物与用途” (Zhongshan Wanhan Pharmaceutical Co ltd, priority 2020, dated 2020).
